Measurements as given in US20240383915A1, “OXAZEPINE COMPOUNDS AND USES THEREOF IN THE TREATMENT OF CANCER” (Genentech, Inc., priority 2021, published 2024).

What was measured:
KRas(G12V) = KRas(G12V) (Homo sapiens (Human), UniProt P01116, G12V); assay: KRas(G12V) GDP HTRF (BODIPY-GDP exchange TR-FRET); type: biochemical
KRas = KRas (Homo sapiens (Human), UniProt P01116); assay: KRas GDP HTRF (BODIPY-GDP exchange TR-FRET); type: biochemical
Summary of the method: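 Inhibition of SOS1-mediated exchange of BODIPY-GDP on KRAS G12D, started with 3 nM recombinant human SOS1 and 300 nM BODIPY-GDP and read after 60 min. TR-FRET excitation 337 nm, ratio 520/490 nm ×10,000. IC50 from 4-parameter Hill fit of normalized data.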

SW480 cells = assay: SW480 proliferation assay; type: cell-based; settings: Homo sapiens, SW480, SW480; read-out: SW480 Prolif IC50 (G12V)
PC-9 cells = assay: PC9 proliferation assay; type: cell-based, human; settings: Homo sapiens, PC-9, PC9; read-out: PC9 Prolif IC50 (G12V)

Sequence of KRas (P01116-2 other isoform, or with tags, fused parts or gaps): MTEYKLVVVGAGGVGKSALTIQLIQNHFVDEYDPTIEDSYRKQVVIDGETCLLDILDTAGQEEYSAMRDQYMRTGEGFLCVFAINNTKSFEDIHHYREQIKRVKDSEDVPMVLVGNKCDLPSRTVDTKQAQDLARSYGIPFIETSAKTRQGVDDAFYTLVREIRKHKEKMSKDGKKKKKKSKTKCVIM
Sequence of KRas(G12V) (P01116-2 other isoform, or with tags, fused parts or gaps G12V): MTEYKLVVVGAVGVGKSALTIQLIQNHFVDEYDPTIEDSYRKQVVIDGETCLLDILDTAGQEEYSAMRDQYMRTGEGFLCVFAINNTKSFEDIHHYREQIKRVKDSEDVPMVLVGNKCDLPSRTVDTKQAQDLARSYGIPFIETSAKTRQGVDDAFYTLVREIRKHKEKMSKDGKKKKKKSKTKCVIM

| IC50 (KRas(G12V)) [nM] | IC50 (KRas) [nM] | IC50 (SW480 cells) [nM] | IC50 (PC-9 cells) [nM] | SMILES |
| --- | --- | --- | --- | --- |
| 0.61 | 1.5 | 510 | 19000 | Cc1cc(N)nc(-c2c(Cl)c3c4c(nc(OC[C@H]5C[C@@H](O)C5)nc4c2F)N([C@H](C)c2cccnc2N)CCO3)c1C(F)(F)F (atropisomer, axis not shown) [Example 146, (1S,3s)-3-((((R)-9-(6-amino-4-methyl-3-(trifluoromethyl)pyridin-2-yl)-4-((R)-1-(2-aminopyridin-3-yl)ethyl)-8-chloro-10-fluoro-5,6-dihydro-4H-[1,4]oxazepino[5,6,7-de]quinazolin-2-yl)oxy)methyl)cyclobutan-1-ol] |
| 1.1 | 3.6 | 410 | 9600 | Cc1cc(N)nc(-c2c(Cl)c3c4c(nc(OCC5CCN(S(C)(=O)=O)CC5)nc4c2F)N([C@H](C)c2cccnc2N)CCO3)c1C(F)(F)F (atropisomer, axis not shown) [Example 148, 6-((R)-4-((R)-1-(2-aminopyridin-3-yl)ethyl)-8-chloro-10-fluoro-2-((1-(methylsulfonyl)piperidin-4-yl)methoxy)-5,6-dihydro-4H-[1,4]oxazepino[5,6,7-de]quinazolin-9-yl)-4-methyl-5-(trifluoromethyl)pyridin-2-amine] |
| 1.1 | 5.4 | 700 | 14000 | Cc1cc(N)nc(-c2c(Cl)c3c4c(nc(OCCF)nc4c2F)N([C@H](C)c2cccnc2N)CCO3)c1C(F)(F)F (atropisomer, axis not shown) [Example 151, 6-((R)-4-((R)-1-(2-aminopyridin-3-yl)ethyl)-8-chloro-10-fluoro-2-(2-fluoroethoxy)-5,6-dihydro-4H-[1,4]oxazepino[5,6,7-de]quinazolin-9-yl)-4-methyl-5-(trifluoromethyl)pyridin-2-amine] |
| 0.75 | 2.3 | 180 | 5600 | Cc1cc(N)nc(-c2c(Cl)c3c4c(nc(OCC5CCOCC5)nc4c2F)N([C@H](C)c2cccnc2N)CCO3)c1C(F)(F)F (atropisomer, axis not shown) [Example 152, 6-((R)-4-((R)-1-(2-aminopyridin-3-yl)ethyl)-8-chloro-10-fluoro-2-((tetrahydro-2H-pyran-4-yl)methoxy)-5,6-dihydro-4H-[1,4]oxazepino[5,6,7-de]quinazolin-9-yl)-4-methyl-5-(trifluoromethyl)pyridin-2-amine] |
| 0.78 | 3.3 | 190 | 14000 | Cc1cc(N)nc(-c2c(Cl)c3c4c(nc(OCC5(C#N)CC5)nc4c2F)N([C@H](C)c2cccnc2N)CCO3)c1C(F)(F)F (atropisomer, axis not shown) [Example 153, 1-((((R)-9-(6-amino-4-methyl-3-(trifluoromethyl)pyridin-2-yl)-4-((R)-1-(2-aminopyridin-3-yl)ethyl)-8-chloro-10-fluoro-5,6-dihydro-4H-[1,4]oxazepino[5,6,7-de]quinazolin-2-yl)oxy)methyl)cyclopropane-1-carbonitrile] |

| SMILES | IC50 (KRas(G12V)) [nM] | IC50 (KRas) [nM] | IC50 (SW480 cells) [nM] | IC50 (PC-9 cells) [nM] |
| --- | --- | --- | --- | --- |
| Cc1cc(N)nc(-c2c(Cl)c3c4c(nc(OCC56CCCN5CCC6)nc4c2F)N([C@H](C)c2cccnc2N)CCO3)c1C(F)(F)F (atropisomer, axis not shown) [Example 147, 6-((R)-4-((R)-1-(2-aminopyridin-3-yl)ethyl)-8-chloro-10-fluoro-2-((tetrahydro-1H-pyrrolizin-7a(5H)-yl)methoxy)-5,6-dihydro-4H-[1,4]oxazepino[5,6,7-de]quinazolin-9-yl)-4-methyl-5-(trifluoromethyl)pyridin-2-amine] | 0.06 | 0.18 | 44 | 1300 |
